Entries after “also recorded” stand apart in the source; their conditions may differ.
Assays:
Type in all cases: physicochemical
[1] = Solubility of edaravone active pharmaceutical ingredient (EDVP) in liquids for dissolution
Experimental: The following liquids for dissolution (a) to (f) were used to prepare sample solutions, and the dissolution states of the edaravone active pharmaceutical ingredient in those solutions were investigated. Then, a liquid for dissolution that enabled to dissolve the edaravone active pharmaceutical ingredient was used to prepare a solution of phenylhydrazine, and the solution was measured using HPLC to check the peak shape of phenylhydrazine.
• (a) 0.1 mol/L hydrochloric acid test liquid • (b) 0.1 mol/L hydrochloric acid/acetonitrile (8:2) mixture • (c) 0.1 mol/L hydrochloric acid/acetonitrile (6:4) mixture • (d) 0.1 mol/L hydrochloric acid/acetonitrile (4:6) mixture • (e) 0.1 mol/L hydrochloric acid/acetonitrile (2:8) mixture • (f) 1 mol/L hydrochloric acid/acetonitrile (6:4) mixture Preparation of Sample Solutions
The edaravone active pharmaceutical ingredient weighed to about 0.10 g was dissolved in liquids for dissolution (a) to (f), and the solutions were adjusted exactly to 10 mLs to provide sample solutions.
Sample solutions were prepared with the following three liquids for dissolution. • 1. 0.1 mol/L hydrochloric acid/methanol (7:3) mixture • 2. 0.1 mol/L hydrochloric acid/methanol (6:4) mixture • 3. […]

[2] = as above; remark: listed apart in the source
[3] = Decomposition during storage of phenylhydrazine hydrochloride versus phenylhydrazine as standard substance (Test Example 1); details: compared with phenylhydrazine
[4] = Stability in solutions of 0.1 mol/L hydrochloric acid/methanol (5:5) mixture by HPLC (Example 3); details: 0.1 mol/L hydrochloric acid/methanol (5:5) compared with hydrochloric acid/acetonitrile (7:3) of Example 1
Source text: The stability of phenylhydrazine and/or 3-methyl-1-phenyl-2-pyrazolin-5-one in a solution was investigated provided that an organic solvent in a liquid for dissolution was changed from acetonitrile to methanol.
In accordance with the conditions of Example 1 other than the liquids for dissolution, the stability of phenylhydrazine and/or 3-methyl-1-phenyl-2-pyrazolin-5-one in the solutions was investigated.
Therefore, 0.1 mol/L hydrochloric acid/methanol (5:5) mixture was used to prepare the addition sample solution (edaravone active pharmaceutical ingredient: 0.10111 g, phenylhydrazine: 5 μL), the standard solution (phenylhydrazine hydrochloride: 13.154 mg), and the sample solution (edaravone active pharmaceutical ingredient: 0.10275 g), and the stability of the solutions was investigated.
The results of the stability study of phenylhydrazine in the solution of 0.1 mol/L hydrochloric acid/methanol (5:5) mixture are shown in Table 7 and FIG. 7.

With CC1=NN(c2ccccc2)C(=O)C1 [EDVP, 3-methyl-1-phenyl-2-pyrazolin-5-one] the “solubility of EDVP” value ([1]; (a) 0.1 mol/L hydrochloric acid test liquid, about 0.10 g to 10 mL) was “insoluble”, the “solubility of EDVP” value ([1]; (b) 0.1 mol/L hydrochloric acid/acetonitrile (8:2) mixture, about 0.10 g to 10 mL) was “insoluble” and the “solubility of EDVP” value ([1]; (c) 0.1 mol/L hydrochloric acid/acetonitrile (6:4) mixture, about 0.10 g to 10 mL) was “soluble”. The “solubility of EDVP” value ([1]; (d) 0.1 mol/L hydrochloric acid/acetonitrile (4:6) mixture, about 0.10 g to 10 mL) was “soluble”, the “solubility of EDVP” value ([1]; (e) 0.1 mol/L hydrochloric acid/acetonitrile (2:8) mixture, about 0.10 g to 10 mL) was “soluble” and the “solubility of EDVP” value ([1]; (f) 1 mol/L hydrochloric acid/acetonitrile (6:4) mixture, about 0.10 g to 10 mL) was “soluble”. For the same molecule, the “solubility of EDVP” value ([1]; liquid for dissolution 3: 0.1 mol/L hydrochloric acid/methanol (5:5) mixture) was “soluble” and the “solubility of EDVP” value ([2]; (g) 0.1 mol/L hydrochloric acid/acetonitrile (7:3) mixture, listed as edaravone active pharmaceutical ingredient) was “soluble; also recorded: dissolve completely”.
In the case of Cl.NNc1ccccc1 [phenylhydrazine hydrochloride], the decomposition during storage [3] is reported as “less likely to decompose during storage”.
In the case of NNc1ccccc1 [phenylhydrazine], the “decomposition of phenylhydrazine in the solution” value [4] is reported as “tended to be faster decomposed” and the dissolution of phenylhydrazine ([2]; 0.1 mol/L hydrochloric acid/acetonitrile mixture (volume ratio 7:3)) is reported as “dissolve completely”.

— patent US12320793B2, “Analysis method of 3-methyl-1-phenyl-2-pyrazolin-5-one active pharmaceutical ingredient, treatment for amyotrophic lateral sclerosis, inhibition of progression of amyotrophic lateral sclerosis, and method of producing medicament containing 3-methyl-1-phenyl-2-pyrazolin-5-one active pharmaceutical …” (MITSUBISHI TANABE PHARMA CORPORATION, priority 2018, dated 2025)
